Data: PubChem BioAssay (NCI)
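Protocol summary: plate cells (96-well), add compound at 5 concentrations, incubate 48 h, interpolate endpoints linearly. Abbreviation: GI50, concentration required for 50% inhibition of growth. TGI: concentration producing complete growth inhibition.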

Assays:
Experiment in all cases: DTP human tumour cell line panel, 48 h
M14 melanoma = test system: M14 melanoma
SF-295 CNS = test system: SF-295 CNS
OVCAR-5 ovarian = test system: OVCAR-5 ovarian
SW-620 colon = test system: SW-620 colon
OVCAR-8 ovarian = test system: OVCAR-8 ovarian
MCF7 breast = test system: MCF7 breast
RPMI-8226 leukemia = test system: RPMI-8226 leukemia
DU-145 prostate = test system: DU-145 prostate
SK-MEL-5 melanoma = test system: SK-MEL-5 melanoma
HS 578T breast = test system: HS 578T breast

SMILES: O=c1c2cc(I)ccc2nc(-c2cccs2)n1O
- TGI (M14 melanoma): > 100 µM
- TGI (SF-295 CNS): > 100 µM
- TGI (OVCAR-5 ovarian): > 100 µM
- TGI (SW-620 colon): > 100 µM
- TGI (OVCAR-8 ovarian): > 100 µM
- TGI (MCF7 breast): > 100 µM
- TGI (RPMI-8226 leukemia): > 100 µM
- TGI (DU-145 prostate): 96.9 µM
- TGI (SK-MEL-5 melanoma): > 100 µM

SMILES: CC(=O)C(C(C)=O)[C@H]1OC(C)(C)O[C@H]1[C@H]1COC(C)(C)O1
- TGI (M14 melanoma): > 100 µM
- TGI (SF-295 CNS): > 100 µM
- TGI (OVCAR-5 ovarian): > 100 µM
- TGI (SW-620 colon): > 100 µM
- TGI (OVCAR-8 ovarian): > 100 µM
- TGI (MCF7 breast): > 100 µM
- TGI (HS 578T breast): > 100 µM
- TGI (DU-145 prostate): > 100 µM
- TGI (SK-MEL-5 melanoma): > 100 µM

SMILES: Cn1c(NC(=O)NC23CC4CC(CC(C4)C2)C3)nc2ccccc21
- TGI (M14 melanoma): > 100 µM
- TGI (SF-295 CNS): 52.3 µM
- TGI (OVCAR-5 ovarian): > 100 µM
- TGI (SW-620 colon): > 100 µM
- TGI (OVCAR-8 ovarian): > 100 µM
- TGI (RPMI-8226 leukemia): > 100 µM
- TGI (SK-MEL-5 melanoma): > 100 µM

SMILES: CCCCCCCc1ccc(-c2nnc(N=Nc3ccc(OCCCCC)cc3)s2)s1
- TGI (M14 melanoma): > 100 µM
- TGI (SF-295 CNS): > 100 µM
- TGI (OVCAR-5 ovarian): > 100 µM
- TGI (SW-620 colon): > 100 µM
- TGI (MCF7 breast): > 100 µM
- TGI (RPMI-8226 leukemia): > 100 µM
- TGI (HS 578T breast): > 100 µM
- TGI (DU-145 prostate): > 100 µM
- TGI (SK-MEL-5 melanoma): > 100 µM

SMILES: COC(=O)[C@@H]1COC(=O)N1
- TGI (M14 melanoma): > 100 µM
- TGI (SF-295 CNS): > 100 µM
- TGI (OVCAR-5 ovarian): > 100 µM
- TGI (SW-620 colon): > 100 µM
- TGI (OVCAR-8 ovarian): > 100 µM
- TGI (MCF7 breast): > 100 µM
- TGI (HS 578T breast): > 100 µM
- TGI (DU-145 prostate): > 100 µM
- TGI (SK-MEL-5 melanoma): > 100 µM

SMILES: O=C(c1ccccc1)c1cc(Cl)ccc1NCn1nnc2ccccc21
- TGI (M14 melanoma): > 100 µM
- TGI (SF-295 CNS): > 100 µM
- TGI (SW-620 colon): > 100 µM
- TGI (OVCAR-8 ovarian): > 100 µM
- TGI (RPMI-8226 leukemia): > 100 µM

SMILES: O=C1/C(=C/c2ccc(Cl)cc2)Oc2ccccc21
- TGI (M14 melanoma): > 100 µM
- TGI (SF-295 CNS): > 100 µM
- TGI (SW-620 colon): > 100 µM
- TGI (OVCAR-8 ovarian): 89.5 µM
- TGI (MCF7 breast): > 100 µM
- TGI (RPMI-8226 leukemia): > 100 µM
- TGI (HS 578T breast): 74.7 µM
- TGI (DU-145 prostate): 40.3 µM
- TGI (SK-MEL-5 melanoma): 42.1 µM

SMILES: COc1ccc(C23OCC(Cc4cc(OC)c(OC)cc42)C3CO)cc1OC (stereo not given)
- TGI (M14 melanoma): > 100 µM
- TGI (SF-295 CNS): > 100 µM
- TGI (OVCAR-5 ovarian): > 100 µM
- TGI (SW-620 colon): > 100 µM
- TGI (MCF7 breast): > 100 µM
- TGI (RPMI-8226 leukemia): > 100 µM
- TGI (DU-145 prostate): > 100 µM
- TGI (SK-MEL-5 melanoma): > 100 µM

SMILES: c1cncc([O][Ge]([O]c2cccnc2)([O]c2cccnc2)[O]c2cccnc2)c1
- GI50 (M14 melanoma): > 100 µM
- TGI (M14 melanoma): > 100 µM
- GI50 (SF-295 CNS): > 100 µM
- TGI (SF-295 CNS): > 100 µM
- GI50 (OVCAR-5 ovarian): > 100 µM
- TGI (OVCAR-5 ovarian): > 100 µM
- GI50 (SW-620 colon): > 100 µM
- TGI (SW-620 colon): > 100 µM
- GI50 (OVCAR-8 ovarian): > 100 µM
- TGI (OVCAR-8 ovarian): > 100 µM
- GI50 (SK-MEL-5 melanoma): > 100 µM
- TGI (SK-MEL-5 melanoma): > 100 µM

SMILES: CC(=O)[C@]1(O)Cc2c(O)c3c(c(O)c2[C@@H](OC2CC(N)C(O)C(C)O2)C1)C(=O)c1c(OCc2ccccc2)cccc1C3=O (stereo not given in full)
- TGI (M14 melanoma): 2.89 µM
- TGI (SF-295 CNS): 4.05 µM
- TGI (OVCAR-5 ovarian): 5.12 µM
- TGI (SW-620 colon): 2 µM
- TGI (OVCAR-8 ovarian): 7.8 µM
- TGI (RPMI-8226 leukemia): > 100 µM
- TGI (HS 578T breast): 2.29 µM
- TGI (DU-145 prostate): 3.4 µM
- TGI (SK-MEL-5 melanoma): 5.84 µM

SMILES: CC(=O)O[C@H]1C(=O)[C@@]2(C)[C@H]([C@H](OC(=O)c3ccco3)[C@]3(O)C[C@H](OC(=O)[C@H](O)[C@@H](NC(=O)c4ccccc4)c4ccccc4)C(C)=C1C3(C)C)[C@]1(OC(C)=O)CO[C@@H]1C[C@@H]2O
- TGI (M14 melanoma): > 25 µM
- TGI (SF-295 CNS): > 19.7 µM
- TGI (OVCAR-5 ovarian): > 25 µM
- TGI (SW-620 colon): > 25 µM
- TGI (OVCAR-8 ovarian): > 17.2 µM
- TGI (MCF7 breast): > 25 µM
- TGI (RPMI-8226 leukemia): 0.131 µM
- TGI (HS 578T breast): > 8.33 µM
- TGI (DU-145 prostate): > 25 µM
